Laboratory results from patent US10870638B2, “Pyridazinone compound or its salt, and herbicide containing it” (ISHIHARA SANGYO KAISHA, LTD., priority 2016, dated 2020).

How the values were obtained:
Format in all cases: in vivo
Details in all cases: active ingredient amount 31 g/ha, 14th day after application
[1] = tested on: wheat (Triticum aestivum L.); experiment: Test Example 2: soil application on the day after sowing, growth inhibition rate on 14th day
How it was run: (§1)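 Growth inhibition (%) judged by eye at day 14, scale 0 = as untreated to 100 = complete kill. Compounds formulated as wettable powders or emulsifiable concentrates, diluted in 1,000 L water per ha and sprayed onto pot soil one day post-sowing at set active-ingredient rates.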

[2] = tested on: redroot pigweed (Amaranthus retroflexus L.); experiment: as above
How it was run: as §1

[3] = tested on: crabgrass (Digitaris sanquinalis L.); experiment: as above
How it was run: as §1

[4] = tested on: barnyardgrass (Echinochloa crus-qalli L.); experiment: as above
How it was run: as §1

rice (Oryza sativa L.) [5] = experiment: as above
How it was run: as §1

[6] = tested on: velvetleaf (Abutilon theophrasti MEDIC.); experiment: as above
How it was run: as §1

[7] = tested on: green foxtail (Setaria viridis L.); experiment: as above
How it was run: as §1

corn (Zea mays L.) [8] = experiment: as above
How it was run: as §1

[9] = tested on: soybean (Glycine max Merr.); experiment: as above
How it was run: as §1

[10] = tested on: prickly sida (Sida spinosa L.); experiment: as above
How it was run: as §1

[11] = tested on: wheat (Triticum aestivum L.); experiment: Test Example 1: foliar treatment, growth inhibition rate on 14th day
How it was run: (§2)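 Visual 0–100% inhibition scoring (100 = complete kill) at 14 days after foliar treatment of soil-grown seedlings at species-specific leaf stages, with the compound sprayed as a wettable powder or emulsifiable concentrate dilution.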

[12] = tested on: crabgrass (Digitaria sanquinalis L.); experiment: as above
How it was run: as §2

[13] = tested on: redroot pigweed (Amaranthus retroflexus L.); experiment: as above
How it was run: as §2

[14] = tested on: barnyardgrass (Echinochloa crus-qalli L.); experiment: as above
How it was run: as §2

rice (Oryza sativa L.) [15] = experiment: as above
How it was run: (§3)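 Inhibition was rated visually 14 days after treatment on a 0–100% scale, where 100 is complete kill. Compounds, formulated as wettable powders or emulsifiable concentrates at set active-ingredient amounts, were diluted to 1,000 L/ha with 0.1 vol% spreader. The dilutions were sprayed post-emergence onto soybean (primary leaf), rice (0.2–2.7 leaf), wild oat (0.4–1.2) and green foxtail (0.5–3.2).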

[16] = tested on: green foxtail (Setaria viridis L.); experiment: as above
How it was run: as §3

corn (Zea mays L.) [17] = experiment: as above
How it was run: as §2

[18] = tested on: italian ryegrass (Lolium multiflorum Lam.); experiment: as above
How it was run: as §2

[19] = tested on: soybean (Glycine max Merr.); experiment: as above
How it was run: as §3

[20] = tested on: wild oat (Avena fatua L.); experiment: as above
How it was run: as §3

Row | SMILES | Growth inhibition rate (%) Wheat [1] [%] | Growth inhibition rate (%) Redroot pigweed [2] [%] | Growth inhibition rate (%) Crabgrass [3] [%] | Growth inhibition rate (%) Barnyardgrass [4] [%] | Growth inhibition rate (%) Rice (rice (Oryza sativa L.) [5]) [%] | Growth inhibition rate (%) Velvetleaf [6] [%] | Growth inhibition rate (%) Green foxtail [7] [%] | Growth inhibition rate (%) Corn (corn (Zea mays L.) [8]) [%] | Growth inhibition rate (%) Soybean [9] [%] | Growth inhibition rate (%) Prickly sida [10] [%] | Growth inhibition rate (%) Wheat [11] [%] | Growth inhibition rate (%) Crabgrass [12] [%] | Growth inhibition rate (%) Redroot pigweed [13] [%] | Growth inhibition rate (%) Barnyardgrass [14] [%] | Growth inhibition rate (%) Rice (rice (Oryza sativa L.) [15]) [%] | Growth inhibition rate (%) Green foxtail [16] [%] | Growth inhibition rate (%) Corn (corn (Zea mays L.) [17]) [%] | Growth inhibition rate (%) Italian ryegrass [18] [%] | Growth inhibition rate (%) Soybean [19] [%] | Growth inhibition rate (%) Wild oat [20] [%]
1 | Cc1ccc(Oc2ncc(C(F)(F)F)cc2F)cc1-c1c(O)c(C)nn(C)c1=O [Compound 2-5] | 30 | 0 | 100 | 100 | 80 | 0 | 100 | 65 | 0 | 0 | 40 | 99 | 20 | 100 | 85 | 100 | 75 | 95 | 0 | 95
2 | Cc1ccc(Oc2nc3ccc(Cl)cc3o2)cc1-c1c(O)c(C)nn(C)c1=O [Compound 2-8] | 0 | 0 | 95 | 100 | 20 | 0 | 100 | 0 | 0 | 0 | 25 | 100 | 0 | 100 | 15 | 99 | 10 | 83 | 0 | 65
3 | Cc1ccc(Oc2nc3ccc(Cl)cc3s2)cc1-c1c(O)c(C)nn(C)c1=O [Compound 2-10] | 0 | 0 | 50 | 95 | 40 | 0 | 85 | 30 | 0 | 0 | 10 | 40 | 0 | 99 | 0 | 99 | 0 | 10 | 30 | 10
4 | CC(=O)Oc1c(C)nn(C)c(=O)c1-c1cc(Oc2ncc(Cl)cc2F)ccc1C [Compound 2-59] | 0 | 0 | 70 | 75 | 0 | 0 | 40 | 0 | 0 | 0 | 40 | 83 | 0 | 99 | 90 | 83 | 90 | 90 | 0 | 95
5 | CC(=O)Oc1c(C)nn(C)c(=O)c1-c1cc(Oc2ccc(C(F)(F)F)cn2)ccc1C [Compound 2-61] | 0 | 0 | 50 | 65 | 0 | 0 | 98 | 0 | 0 | 0 | 95 | 78 | 0 | 99 | 90 | 95 | 95 | 93 | 0 | 98
6 | CC(=O)Oc1c(C)nn(C)c(=O)c1-c1cc(Oc2ncc(C(F)(F)F)cc2F)ccc1C [Compound 2-63] | 0 | 0 | 100 | 100 | 15 | 0 | 98 | 0 | 0 | 0 | 95 | 98 | 0 | 100 | 90 | 100 | 100 | 100 | 0 | 100
7 | Cc1ccc(Oc2ncc(C(F)(F)F)cc2Br)cc1-c1c(O)c(C)nn(C)c1=O [Compound 2-83] | 0 | 100 | 100 | 99 | 30 | 0 | 100 | 0 | 0 | 75 | 10 | 98 | 0 | 99 | 0 | 99 | 60 | 80 | 0 | 88
8 | Cc1ccc(Oc2ncc(C(F)(F)F)cc2C(F)(F)F)cc1-c1c(O)c(C)nn(C)c1=O [Compound 2-84] | 0 | 0 | 100 | 100 | 60 | 0 | 100 | 0 | 0 | 0 | 0 | 100 | 0 | 99 | 0 | 100 | 90 | 93 | 0 | 99
9 | CCc1nn(C)c(=O)c(-c2cc(Oc3nc4ccc(Cl)cc4o3)ccc2C)c1O [Compound 2-89] | 0 | 0 | 30 | 95 | 30 | 0 | 50 | 0 | 0 | 0 | 0 | 65 | 0 | 95 | 10 | 93 | 30 | 20 | 20 | 0
